One compound from US11028084B2, “Selective inhibitors of gentotoxic steress-induced IKK/NF-κB pathways” (Max-Delbrück-Centrum für Molekulare Medizin in der …, priority 2016, dated 2021) can be followed below.

Each structure is given as a SMILES string.

What all share (format): cell-based, human
Experiment [1] concerns genotoxic stress-initiated NF-κB signaling cascade. Description: Time course of IκBα, p65, IKK and TAK1 phosphorylation after γ-IR, WB, U2OS cells. The text has this: FIG. 6: (A) U2OS cells were pre-treated with DMSO or MW01 and irradiated. Stimulation of cell with IL-1β served as a positive control for IκBα and p65 phosphorylation. Cells were lysed at indicated time points and used for WB analyses. (B,C) Similar experimental setup as in (A). (D) Experiment as in (A-C), but with other time points analysed and performed with HepG2 cells. PARP1 and LDH serve as loading controls.

The subject of experiment [2] is ATM cytoplasmic translocation. Kind of experiment: Cytoplasmic accumulation of ATM, fractionation experiment (NE/CE) with WB, HepG2 cells. The following applies: 5 μM. How it is done:
FIG. 7: Cytoplasmic accumulation of ATM. (A) Fractionation experiment with separated nuclear extracts (NE) and cytoplasmic extracts (CE). PARP1 and LDH staining served as loading and fractionation controls. Cells were pre-treated with DMSO or MW01 (5 μM) prior to irradiation and cell harvesting at indicated times. NE and CE were subjected to SDS-PAGE/WB procedure. (B) U2OS cells were seeded on cover slips 2 days before treatment. The cells were pre-treated with solvent DMSO alone or with MW01 prior to irradiation, cell fixation and subsequent immunofluorescence staining.
For the preparation of nuclear and cytoplasmic fractions, cells were lysed with buffer A (supplemented with 1 mM DTT, 10 mM NaF, 20 mM β-glycerophosphate, 250 nM NaVO3, complete protease inhibitor cocktail (Roche) and 50 nM calyculin A. Lysates were adjusted to a final concentration of 0.2% NP-40, vortexed for 10 s and spun down. The supernatant, representing the cytoplasmic extract (CE), was transferred into a new 1.5 ml reaction tube. The pellet was washed with buffer A, was resuspended with buffer C and shaken for 20 min at 4° C. Following 10 min of centrifugation at 14,000 rpm, the supernatant, representing the nuclear extract (NE), was transferred into a new reaction cap.

The test system of experiment [3] is IL-1β-induced NF-κB activation. Description: IL-1β-stimulated NF-κB activation, SDS-PAGE/WB and EMSA, U2OS cells. The method, then: FIG. 5: (A) U2OS cell were pre-treated with MW01 followed by stimulation with IL-1p. Cell lysates were used for SDS-PAGE/WB and EMSA. (B) Cells pre-treated with increasing concentrations MW01 were stimulated with IL-1p. Cell lysates were used for SDS-PAGE/WB and stained with indicated antibodies.
For the activation of the canonical NF-κB pathway cells were treated with recombinant human TNFα (10 ng/ml) or IL-1β (10 ng/ml) for 20-30 min at 37° C.

Experiment [4] concerns NF-κB DNA binding activity. Kind of experiment: NF-κB DNA binding activity (EMSA) after γ-IR or etoposide, U2OS cells. How it is done: FIG. 3: (A) U2OS cells were pre-treated with increasing concentrations of MW01 in duplicates in a 384 well plate. Then, cells were treated with etoposide, fixed and subjected to IF of p65. Spatial measurement of p65 cytosolic and nuclear localisation was used for calculation of p65 translocation rates. (B) U2OS cells were pre-treated with DMSO, MW01 and irradiated with γ-IR. After 90 min cells were lysed and subjected to SDS-PAGE/WB and EMSA. (C) Cells were pre-treated with different concentrations of MW01 as indicated, treated with γ-IR (C) or etoposide (D) and subjected to WB or EMSA, respectively. LDH in (C) represents the loading control.
Nuclear or whole cell lysates were incubated with a ^32P-labeled NF-κB DNA-[…]
For electrophoresis, a current of 26 mA was applied for 2 h. After drying the gel onto a Whatman paper, signals were visualised on an autoradiography film (GE Healthcare) after overnight incubation at −80° C. in a radiography cassette. All work using radioactive substances were done at a monitored work space suitable for radioactive work.
For orientation: In EMSA bound probe runs differently from free probe, usually more slowly.

For the compound `COc1ccc2c(c1OC)c(=O)n1c3ccc(O)cc3c3ccnc2c31` [MW01, 12-hydroxy-6,7-dimethoxy-8H-benzo[c]indolo[3,2,1-ij][1,5]naphthyridin-8-one], the TAK1 phosphorylation entry in experiment [1] (45 and 60 min following irradiation) is listed as “strongly inhibited”. In addition, in experiment [1] (45 min and 60 min after γ-IR), the IκBα phosphorylation result is recorded as “complete inhibition” and the “p65 S536 phosphorylation” value is recorded as “inhibited”. In addition, the IKK phosphorylation entry in experiment [1] (90 min after irradiation) was “abolished”. In experiment [2] (45 min after irradiation), the “accumulation of total ATM in the cytoplasm” value is reported as “inhibited the accumulation of ATM in the cytoplasm”. The “detection of phosphorylated ATM in nuclear extracts” value in experiment [2] (45 min and 90 min after irradiation) was “did not affect”. The “detection of activated ATM species in the cytoplasmic extracts” value in experiment [2] (after irradiation) is given as “abolished”. Further, the “p65 S536 phosphorylation following IL-1β stimulation” value in experiment [3] (U2OS) is “neither inhibited p65 S536 phosphorylation”. Also, the “IKK activation and p65 S536 phosphorylation after IL-1β at high concentrations” value in experiment [3] (up to 100 μM) was “no effect on the phosphorylation state of IKK or p65”. Also, the “etoposide-induced NF-κB DNA binding activity” value in experiment [4] (etoposide) is “inhibited by MW01 pre-treatment in a concentration dependent manner”. Besides, the “γ-IR-induced NF-κB DNA binding activity” value in experiment [4] (γ-IR, 90 min, U2OS) was “inhibited the γ-IR-induced NF-κB DNA binding activity”.
